This note sets out measurements from PubChem BioAssay (NCI).

Some test systems named below: MDA-MB-231 breast; SK-MEL-2 melanoma; LOX IMVI melanoma; SW-620 colon; MOLT-4 leukemia; OVCAR-8 ovarian; A498 renal; NCI-H460 lung; SR leukemia; HS 578T breast; DU-145 prostate; MDA-MB-435; MALME-3M melanoma; T-47D breast; PC-3 prostate; CAKI-1 renal; K-562 leukemia; SF-268 CNS; CCRF-CEM leukemia.
Holding throughout (assay): DTP human tumour cell line panel, 48 h

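How tested: cells in 96-well plates exposed to compound for 48 hours at five concentrations. TGI: total growth inhibition.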

Consider `CCC1C(NC(=O)OC)C(=O)N1[C@@H](C)c1ccccc1` (stereo partly specified), for which the TGI in the assay on MDA-MB-231 breast, in the assay with SK-MEL-2 melanoma, in the assay with LOX IMVI melanoma, in the assay on SW-620 colon, in the assay with MOLT-4 leukemia and with OVCAR-8 ovarian was above 100 µM throughout. Moreover, the total growth inhibition concentration (TGI) in the assay with A498 renal, in the assay on NCI-H460 lung, in the assay with SR leukemia, in the assay with HS 578T breast, with DU-145 prostate and in the assay with MDA-MB-435 was above 100 µM in each case. In addition, the TGI with MALME-3M melanoma, in the assay with T-47D breast, in the assay with PC-3 prostate, in the assay with CAKI-1 renal, in the assay with K-562 leukemia and in the assay on SF-268 CNS was above 100 µM in each case.
`Cc1ccc(S(=O)(=O)C2=Cc3ccccc3C2(O)c2ccccc2)cc1` (stereo unspecified): the TGI (in general, the concentration at which net growth stops) in the assay with MDA-MB-231 breast is 33.3 µM; in the assay on SK-MEL-2 melanoma, 31.4 µM; with LOX IMVI melanoma, 34.2 µM; with SW-620 colon it was above 100 µM; in the assay on MOLT-4 leukemia, above 100 µM; in the assay on OVCAR-8 ovarian it was 81.2 µM. Besides, the concentration for total growth inhibition (TGI) in the assay with A498 renal is above 10 µM; in the assay on NCI-H460 lung it was 54.6 µM; with SR leukemia, 92 µM; in the assay on HS 578T breast it was 81.9 µM; in the assay with DU-145 prostate, above 100 µM; with MDA-MB-435 it was 69.9 µM. In addition, the TGI was 38.1 µM in the assay with CCRF-CEM leukemia; above 100 µM in the assay on T-47D breast; 92.6 µM in the assay on PC-3 prostate; 76.5 µM with K-562 leukemia; above 100 µM with SF-268 CNS.
With `Cc1cccc(N=Nc2c(C)nn(C(=O)CC(=O)Nc3ccc(Cl)cc3)c2C)c1`, the TGI in the assay with MDA-MB-231 breast, in the assay with SK-MEL-2 melanoma, in the assay with LOX IMVI melanoma, with SW-620 colon, in the assay with MOLT-4 leukemia and in the assay on OVCAR-8 ovarian was above 100 µM throughout. For the same molecule, the TGI in the assay on A498 renal was above 100 µM; in the assay on NCI-H460 lung, above 100 µM; with SR leukemia it was 41.8 µM; in the assay on HS 578T breast it was above 100 µM; with DU-145 prostate, above 100 µM; with MDA-MB-435 it was above 100 µM. Also, the TGI with CCRF-CEM leukemia was 98.6 µM; with T-47D breast it was above 100 µM; in the assay on PC-3 prostate, above 100 µM; in the assay on CAKI-1 renal, above 100 µM; in the assay with SF-268 CNS, above 100 µM.
Regarding `CCCC(=O)OCC1OC(n2cc(F)c(=O)[nH]c2=O)C(F)C1O` (stereo unspecified), the TGI with MDA-MB-231 breast, with SK-MEL-2 melanoma, with LOX IMVI melanoma, in the assay with SW-620 colon, with MOLT-4 leukemia and in the assay with OVCAR-8 ovarian was above 100 µM each time. The TGI in the assay on NCI-H460 lung was above 100 µM; in the assay with SR leukemia, above 100 µM; in the assay with HS 578T breast, above 100 µM; in the assay on DU-145 prostate, above 67.1 µM; in the assay with MDA-MB-435, above 100 µM; in the assay on CCRF-CEM leukemia it was above 100 µM. Further, the TGI in the assay with MALME-3M melanoma, in the assay on T-47D breast, in the assay on PC-3 prostate, in the assay on K-562 leukemia and in the assay on SF-268 CNS was above 100 µM in each case.
For the molecule `COc1ccc2c(=O)c3ccoc3[nH]c2c1`, the concentration for total growth inhibition (TGI) in the assay with MDA-MB-231 breast, in the assay with SK-MEL-2 melanoma, in the assay with LOX IMVI melanoma, in the assay with SW-620 colon, in the assay with MOLT-4 leukemia and in the assay with OVCAR-8 ovarian was above 100 µM in each case. The concentration for total growth inhibition (TGI) in the assay on A498 renal, in the assay on NCI-H460 lung, in the assay on SR leukemia, in the assay with HS 578T breast, in the assay on DU-145 prostate and in the assay on MDA-MB-435 was above 100 µM in each case. Moreover, the TGI in the assay with CCRF-CEM leukemia, in the assay on T-47D breast, in the assay on PC-3 prostate, in the assay with CAKI-1 renal, in the assay on K-562 leukemia and in the assay on SF-268 CNS was above 100 µM throughout.
Take `C/C(=C/CC[C@](C)(OC1OC(CO)C(O)C(O)C1O)[C@H]1CC[C@]2(C)[C@@H]1CC[C@@H]1[C@@]3(C)CC[C@H](O)C(C)(C)[C@@H]3C[C@H](O)[C@]12CO)CO` (stereo partly specified): the TGI in the assay with MDA-MB-231 breast, in the assay with LOX IMVI melanoma, in the assay with SW-620 colon, in the assay with MOLT-4 leukemia, in the assay on OVCAR-8 ovarian and in the assay on A498 renal was above 100 µM throughout. The TGI with NCI-H460 lung, in the assay on SR leukemia, with HS 578T breast, with DU-145 prostate, in the assay with MDA-MB-435 and with CCRF-CEM leukemia was above 100 µM each time. The TGI in the assay with MALME-3M melanoma, in the assay with T-47D breast, with PC-3 prostate, in the assay with CAKI-1 renal, with K-562 leukemia and with SF-268 CNS was above 100 µM in each case.
Take `NC(=O)c1ncn(C2C=CC(CP(=O)(O)O)C2)c1N` (stereo unspecified): the concentration for total growth inhibition (TGI) with MDA-MB-231 breast, with SK-MEL-2 melanoma, with LOX IMVI melanoma, in the assay with SW-620 colon, with MOLT-4 leukemia and with OVCAR-8 ovarian was above 100 µM each time. Also, the TGI in the assay on NCI-H460 lung, in the assay with SR leukemia, in the assay with HS 578T breast, in the assay with DU-145 prostate, with MDA-MB-435 and in the assay on CCRF-CEM leukemia was above 100 µM each time. For the same molecule, the TGI with MALME-3M melanoma, in the assay on T-47D breast, in the assay with PC-3 prostate, in the assay on CAKI-1 renal, with K-562 leukemia and in the assay with SF-268 CNS was above 100 µM each time.
As for `Cn1c(=O)c2c(nc3n2CCCC(=O)N3CCCCl)n(C)c1=O`, the TGI with MDA-MB-231 breast, with SK-MEL-2 melanoma, with LOX IMVI melanoma, with SW-620 colon, with MOLT-4 leukemia and in the assay on OVCAR-8 ovarian was above 100 µM throughout. For the same molecule, the TGI with A498 renal, in the assay with NCI-H460 lung, in the assay on SR leukemia, in the assay on HS 578T breast, in the assay with DU-145 prostate and in the assay on MDA-MB-435 was above 100 µM throughout. The concentration for total growth inhibition (TGI) with CCRF-CEM leukemia, with T-47D breast, with PC-3 prostate, in the assay on CAKI-1 renal, with K-562 leukemia and in the assay with SF-268 CNS was above 100 µM throughout.
